The target of assay [1] is T1, Fatty-acid amide hydrolase 1 (Rattus norvegicus) (UniProt P97612).
T1 sequence (whole entry): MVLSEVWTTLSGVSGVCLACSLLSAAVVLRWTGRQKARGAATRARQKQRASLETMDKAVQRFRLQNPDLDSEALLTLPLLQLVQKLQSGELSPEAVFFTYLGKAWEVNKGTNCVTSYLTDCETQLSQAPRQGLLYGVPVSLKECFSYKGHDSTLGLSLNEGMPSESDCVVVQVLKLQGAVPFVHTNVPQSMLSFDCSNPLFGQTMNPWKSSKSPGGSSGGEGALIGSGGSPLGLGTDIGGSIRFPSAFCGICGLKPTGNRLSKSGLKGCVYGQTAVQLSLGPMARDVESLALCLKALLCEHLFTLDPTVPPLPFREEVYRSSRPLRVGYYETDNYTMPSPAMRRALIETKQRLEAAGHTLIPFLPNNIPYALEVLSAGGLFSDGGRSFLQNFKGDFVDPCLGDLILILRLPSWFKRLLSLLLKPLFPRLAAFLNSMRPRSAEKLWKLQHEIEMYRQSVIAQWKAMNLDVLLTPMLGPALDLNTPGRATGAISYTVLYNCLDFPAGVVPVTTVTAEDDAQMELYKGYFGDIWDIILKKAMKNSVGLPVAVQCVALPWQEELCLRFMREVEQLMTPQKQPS
As to the kind of experiment: Inhibition of rat histidine tagged FAAH expressed in Escherichia coli at 10 uM by coumarin ester substrate fluorescence assay.

In assay [2] the target is Cannabinoid receptor 2 (Mus musculus, UniProt P47936). As to the kind of experiment: Displacement of [3H]CP55940 from CB2 receptor in mouse spleen membrane. Type of assay: cell membranes. A general note: Loss of bound radioactivity is the signal in a displacement assay; it reports binding, not function.
Chain of Cannabinoid receptor 2 (Mus musculus, UniProt P47936) (P47936 whole entry): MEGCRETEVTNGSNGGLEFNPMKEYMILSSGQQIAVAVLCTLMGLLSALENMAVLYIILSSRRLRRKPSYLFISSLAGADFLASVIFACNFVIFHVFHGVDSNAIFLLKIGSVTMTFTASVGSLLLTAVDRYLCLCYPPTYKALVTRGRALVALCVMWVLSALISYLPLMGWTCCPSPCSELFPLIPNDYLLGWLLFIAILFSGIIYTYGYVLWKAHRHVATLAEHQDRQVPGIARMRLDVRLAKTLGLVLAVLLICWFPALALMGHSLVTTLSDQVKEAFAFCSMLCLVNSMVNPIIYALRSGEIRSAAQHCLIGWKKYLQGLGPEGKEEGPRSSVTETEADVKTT
For assay [3], the target named is Cannabinoid receptor 2 (Homo sapiens, UniProt P34972). As to the kind of experiment: Displacement of [3H]CP55940 from human CB2 receptor expressed in HEK293 cells. Type of assay: cell-based.
Chain of Cannabinoid receptor 2 (Homo sapiens, UniProt P34972) (P34972 whole entry): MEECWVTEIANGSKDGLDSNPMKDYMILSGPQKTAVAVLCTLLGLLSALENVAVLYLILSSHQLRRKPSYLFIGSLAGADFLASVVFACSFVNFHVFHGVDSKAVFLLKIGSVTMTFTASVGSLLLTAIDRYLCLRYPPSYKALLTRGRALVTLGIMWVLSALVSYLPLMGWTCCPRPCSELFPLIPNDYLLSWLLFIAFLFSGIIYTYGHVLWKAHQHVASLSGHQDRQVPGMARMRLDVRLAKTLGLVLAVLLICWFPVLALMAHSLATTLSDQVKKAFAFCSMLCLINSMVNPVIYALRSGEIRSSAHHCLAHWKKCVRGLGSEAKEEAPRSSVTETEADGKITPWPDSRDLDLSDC
Assay [4] concerns the target Cannabinoid receptor 1 (Rattus norvegicus, UniProt P20272). The format is cell membranes, Brain.
Description: Displacement of [3H]CP55940 from CB1 receptor in rat brain synaptosome membrane
For assay [5], the target named is T2, Monoglyceride lipase (Homo sapiens) (UniProt Q99685).
T2 sequence (whole entry): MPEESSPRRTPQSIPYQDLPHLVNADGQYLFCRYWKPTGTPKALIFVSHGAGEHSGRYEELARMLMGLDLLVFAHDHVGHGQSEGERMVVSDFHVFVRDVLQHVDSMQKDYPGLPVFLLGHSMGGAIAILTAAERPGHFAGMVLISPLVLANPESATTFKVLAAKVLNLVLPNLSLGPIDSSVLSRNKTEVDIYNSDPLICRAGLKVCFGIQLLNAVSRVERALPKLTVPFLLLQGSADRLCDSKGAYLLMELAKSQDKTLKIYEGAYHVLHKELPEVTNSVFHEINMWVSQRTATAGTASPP
The experiment in a line: Inhibition of human N-terminal histidine tagged full length MAGL expressed in Escherichia coli at 10 uM by coumarin ester substrate fluorescence assay.

SMILES strings stand for the structures. Active and inactive are the calls of the source. No cut-off for these calls is given here.

By inhibition is commonly meant the share of the control response that was lost under treatment. The Ki is a dissociation constant, usually derived from enzyme kinetics or from competition with a known ligand. Read a high Ki as weaker binding.

Chain of Cannabinoid receptor 1 (P20272 whole entry): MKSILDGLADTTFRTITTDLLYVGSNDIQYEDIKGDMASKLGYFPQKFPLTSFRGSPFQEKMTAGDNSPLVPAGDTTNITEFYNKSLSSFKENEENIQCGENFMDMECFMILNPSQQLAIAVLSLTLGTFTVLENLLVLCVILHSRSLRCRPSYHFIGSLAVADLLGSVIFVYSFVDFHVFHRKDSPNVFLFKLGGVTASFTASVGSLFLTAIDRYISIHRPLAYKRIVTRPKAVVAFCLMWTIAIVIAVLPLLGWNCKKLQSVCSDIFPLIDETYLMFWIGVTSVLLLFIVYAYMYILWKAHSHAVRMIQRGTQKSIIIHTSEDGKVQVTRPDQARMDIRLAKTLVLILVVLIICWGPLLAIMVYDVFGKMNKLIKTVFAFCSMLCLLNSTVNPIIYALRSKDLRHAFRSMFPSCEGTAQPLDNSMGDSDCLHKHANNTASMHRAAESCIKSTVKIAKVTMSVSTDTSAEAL

The compound `CCCCCCCCCCCCCCCCS(=O)(=O)F` registered an inhibition in assay [1] of 100%.
For the compound `CCCCCCCC/C=C\CCCCCCCC(=O)OC(COC)COC(=O)NCCCCCCCC` (racemic), the inhibition constant Ki in assay [2], in assay [3] and in assay [4] was more than 1 µM each time. In addition, the inhibition result in assay [1] and in assay [5] was “inactive” each time.
Take `CCCCCCCC(=O)OC(CNC(=O)ON=C1CCCCC1)COC` (racemic): the inhibitory constant (Ki) in assay [2], in assay [3] and in assay [4] was more than 1 µM each time. Further, the inhibition entry in assay [1] and in assay [5] was “inactive” each time.
For the compound `CCCCC/C=C\C/C=C\C/C=C\C/C=C\CCCC(=O)OC(COC)COC(=O)NCCCCCCCC` (racemic), the Ki in assay [2], in assay [3] and in assay [4] was more than 1 µM in each case. Moreover, the inhibition result in assay [1] and in assay [5] was “inactive” in each case.
Take `CCCCCCCC/C=C\CCCCCCCC(=O)OC(CNC(=O)ON=C1CCCCC1)COC` (racemic): the inhibition constant (Ki) in assay [2], in assay [3] and in assay [4] was more than 1 µM each time. The inhibition result in assay [1] and in assay [5] was “inactive” each time.
Consider `CCCCCCCCNC(=O)OCC(COC)OC(=O)NCCCCCCCC` (racemic), for which the Ki in assay [2], in assay [3] and in assay [4] was more than 1 µM each time. Also, the inhibition result in assay [1] and in assay [5] was “inactive” in each case.
In the case of `COCC(CNC(=O)ON=C1CCCCC1)OC(=O)CCCc1ccc(-c2ccccc2)cc1` (racemic), the inhibition constant (Ki) in assay [2], in assay [3] and in assay [4] was more than 1 µM each time. Moreover, the inhibition result in assay [1] and in assay [5] was “inactive” in each case.
Turning to `CCCCCCCCOC(=O)NCC(COC)OC(=O)CCCCCCC` (racemic), the inhibitory constant (Ki) in assay [2], in assay [3] and in assay [4] was more than 1 µM in each case. Further, the inhibition result in assay [1] and in assay [5] was “inactive” in each case.
For the compound `CCCCCCCC/C=C\CCCCCCCC(=O)OC(CNC(=O)OCCCCCCCC)COC` (racemic), the inhibition constant (Ki) in assay [2], in assay [3] and in assay [4] was more than 1 µM throughout. The inhibition result in assay [1] and in assay [5] was “inactive” each time.
In the case of `CCCCCCCC(=O)NCC(COC)OC(=O)CCCCCCC` (racemic), the Ki in assay [2], in assay [3] and in assay [4] was more than 1 µM in each case. Further, the inhibition entry in assay [1] and in assay [5] was “inactive” each time.
With `COCC(COC(=O)CCCc1ccc(-c2ccccc2)cc1)OC(=O)CCCc1ccc(-c2ccccc2)cc1` (racemic), the inhibition constant Ki in assay [2], in assay [3] and in assay [4] was more than 1 µM in each case. Besides, the inhibition result in assay [1] and in assay [5] was “inactive” each time.
Take `CCCCCCCC/C=C\CCCCCCCC(=O)OC(CNC(=O)CCCCCCC)COC` (racemic): the Ki in assay [2], in assay [3] and in assay [4] was more than 1 µM each time. Also, the inhibition entry in assay [1] and in assay [5] was “inactive” each time.
Take `CCCCCCCCNC(=O)OCC(OC)O[Si](c1ccccc1)(c1ccccc1)C(C)(C)C` (racemic): the Ki in assay [2], in assay [3] and in assay [4] was more than 1 µM throughout. Besides, the inhibition entry in assay [1] and in assay [5] was “inactive” throughout.
Take `COCC(CNC(=O)CCCc1ccc(-c2ccccc2)cc1)OC(=O)CCCc1ccc(-c2ccccc2)cc1` (racemic): the Ki in assay [2], in assay [3] and in assay [4] was more than 1 µM in each case. Moreover, the inhibition result in assay [1] and in assay [5] was “inactive” in each case.
On to `CCCCCCCCNC(=O)OCC(COC)OC(=O)CCCCCCC` (racemic), for which the Ki in assay [2], in assay [3] and in assay [4] was more than 1 µM in each case. The inhibition entry in assay [1] and in assay [5] was “inactive” in each case.
For `COCC(O)CNC(=O)ON=C1CCCCC1` (racemic), the Ki in assay [2] and in assay [3] was more than 1 µM each time. Also, the inhibition result in assay [1] and in assay [5] was “inactive” in each case.
Turning to `CCCCCCCC(=O)OCC(COC)OC(=O)CCCCCCC` (racemic), the inhibition constant (Ki) in assay [2], in assay [3] and in assay [4] was more than 1 µM throughout. For the same compound, the inhibition result in assay [1] and in assay [5] was “inactive” in each case.

The values are drawn from ChEMBL document CHEMBL2169869, “Assay and inhibition of diacylglycerol lipase activity” (Bioorg Med Chem Lett, 2012).
